Values quoted from earlier work, collected in patent US20220401441A1, “PHARMACEUTICAL COMPOSITION COMPRISING SELEXIPAG” (ACTELION PHARMACEUTICALS LTD, priority 2019, published 2022).

System: patients with pulmonary arterial hypertension
Details: selexipag versus placebo

CC(C)N(CCCCOCC(=O)NS(C)(=O)=O)c1cnc(-c2ccccc2)c(-c2ccccc2)n1 [selexipag, 2-{4-[N-(5,6-diphenylpyrazin-2-yl)-N-isopropylamino]butyloxy}-N-(methylsulfonyl)acetamide]
risk of the primary composite end point of death or a complication related to pulmonary arterial hypertension: significantly lower
